Paper PMC6984391, “Anion carriers as potential treatments for cystic fibrosis: transport in cystic fibrosis cells, and additivity to channel-targeting drugs” (Chemical Science, 2019)
Where two headings read alike, the source gives them in different places.

Legend:
[1] = set-up: method as in PMID 22461434, PMID 21846096, PMID 29786913; settings: mol% carrier to lipid for 50% Cl^– efflux in 270 s; 490 mM NaCl inside, 490 mM NaNO3 outside; ref [22], [16 and 25]; cited from earlier work
[2] = set-up: method as in ref [16 and 25], [20], [21], [22], [23], [24], [29] (Reference column); settings: 1H NMR titrations with Bu4N^+Cl^– in DMSO-d6/H2O (200 : 1) at 298 K; ref [16 and 25], [20], [21], [22], [23], [24], [29]; cited from earlier work
YFP-FRT cells = experiment: YFP fluorescence plate reader assay of anion transport in YFP-FRT cells; assay type: cell-based, Fischer rat; settings: for Corrected absolute initial slope |dF/dT|: transporter 50 μM, DMSO 0.5% v/v, DMSO-only subtracted, I^– 100 mM; for anion transport activity in YFP-FRT cells (in words): 50 μM
Procedure: We treated YFP-FRT cells with anionophores (final concentration, 1–50 μM) or the vehicle DMSO (0.1–0.5% v/v) by direct addition to the phosphate-buffered saline (PBS) bathing the cells. After incubating YFP-FRT cells with anionophores for 10 minutes at 37 °C, we evaluated anion transport activity by adding I^– (100 mM), using a PBS iodide solution with Cl^– replaced by I^–, and following cell fluorescence for 14 s. FRT cells are relatively impermeable to anions because they lack key ion channels found in epithelial cells, including CFTR.[33] Thus, in the absence of anionophore, iodide cannot enter YFP-FRT cells and no quenching of fluorescence occurs. By contrast, in the presence of an anionophore, iodide influx occurs leading to fluorescence quenching.[29]
To quantify anion transport by different anionophores, we fitted first order exponential functions to the iodide-induced fluorescence decay to measure the initial slope, averaging values over multiple experiments. Fig. 2b and Table 1 summarise the data. Consistent with our previous results,[29] we observed a wide range of anion transport activity. […] We therefore selected for further study 11, 12, 15 and 19.
FRT cells stably expressing the halide sensor YFP-H148Q/I152L6 were generous gifts of AS Verkman (University of California, San Francisco), while CFBE41o- cells7 stably expressing YFP (YFP-CFBE cells) were a generous gift of LJV Galietta (Telethon Institute for […]
Genetics and Medicine). […]
U ml-1 penicillin and […] streptomycin. All cells were incubated at 37 °C in a humidified atmosphere with 5% CO2. […]
Fluorescence plate reader assay […]
quenching of YFP fluorescence at 37 °C using a microplate reader following the method of Galietta et al..9 The microplate reader (model: FLUORstar Omega; BMG LABTECH Ltd., Aylesbury, UK) was equipped with a syringe pump and excitation (500 ± 10 nm) and emission (535 ± 15 nm) filters (Chroma Technology GmbH, Olching, Germany). After washing cells twice with PBS (composition (mM): 137 NaCl, 2.7 KCl, 8.1 Na2HPO4, 1.5 KH2PO4, 1 CaCl2 and 0.5 MgCl2, pH 7.40), cells were incubated with test anionophores (1 – 50 µM) or the vehicle (DMSO [0.1 – 0.5% v v-1]) in 40 µl of PBS for 10 – 120 minutes according to the experimental design. Other compounds, including forskolin, ivacaftor and channel inhibitors were added to […]
the PBS bathing cells 10 minutes prior to PBS iodide addition, whereas UTP was added to cells with the PBS iodide solution. Fluorescence was measured for 14 seconds; 2 seconds before and 12 seconds after injection of 110 µl PBS iodide solution (137 mM Cl- replaced by I-) into each well (to obtain a final concentration of I- of 100 mM).
We expressed cell fluorescence values (F) relative to the fluorescence value immediately before I- injection (F0), excluding the initial decrease, which likely represents the quenching of extracellular YFP released from cells and signal reduction accompanying the increase in solution volume bathing cells. To quantify anion transport by test anionophores, we determined the initial slope of the fluorescence decay following I - addition by fitting first order exponential functions to the last 12 seconds of each fluorescence recording. In each experim ent, n values represent the mean of two replicates and all treatments were tested at least three times using different microplates. […]
FRT cells was selected and the cells were perfused with (i) PBS for 5 minutes then (ii) PBS containing I- (10 mM) (made by preparing PBS with 127 mM NaCl to maintain osmolarity) for 5 minutes and finally (iii) PBS for 30 minutes to remove thoroughly I- from the perfusion chamber. YFP-FRT cells were repeatedly treated with I- (10 mM) and then washed with PBS […]
During all interventions, the rate of solution perfusion was 8 – 10 ml min-1; temperature was 37 °C and except for the first

[3] = Cl-/NO3- exchange in LUVs with preincorporated anionophore (lucigenin method); assay type: biochemical; settings: transporter preincorporated in LUVs (70% POPC + 30% cholesterol), 25 mM NaCl gradient, 225 mM NaNO3; new compound or new data
Procedure: The four new anionophores were tested for affinity to Cl^– (in CHCl3 and DMSO, with tetra-alkylammonium counter-ions), and for anion transport (Cl^–/NO3^– exchange) when preloaded into 200 nm large unilamellar vesicles (LUVs). The latter assay was performed using the well-established “lucigenin method”[30] in which Cl^– influx into vesicles is followed through quenching of fluorescence from the halide-sensitive fluorophore lucigenin. The results are listed in Table 1, accompanied by corresponding values for the previously-reported compounds where available. […] In this test, anion transport by anionophores delivered externally to LUVs is compared with their action when preloaded into LUV membranes.[24],[29],[32]
3. Transport studies in vesicles
Transport measurements in vesicles with preincorporated anionophores.
1-Palmitoyl-2-oleoyl-sn-glycero-3-phosphocholine (POPC) was obtained from Avanti® Polar Lipids, Inc. An extrusion apparatus and 200 nm polycarbonate membranes were obtained from GC Technology Ltd. All lipid and receptor solutions were prepared using chloroform that had been deacidified by passage through a flash chromatography column containing basic alumina, and all aqueous solutions were prepared using deionised water that had been passed through a Millipore filtration system.
POPC and cholesterol solutions (~10 mM) in deacidified chloroform were combined with a solution of transporter in methanol or deacidified chloroform in a 5 mL round bottomed flask.
Volumes of the aliquots were calculated from the concentrations of the lipid solution to obtain a POPC to cholesterol ratio of 7:3 (for instance by combining 4.20 µmol POPC and 1.80 µmol cholesterol). The ratio of anionophore to lipid (POPC + cholesterol) was either 1:2500 or 1:25000, as specified in the experiments. The solvents from the lipid/receptor mixture were evaporated under a stream of N2 and the lipid film was dried under high vacuum for 1 h. The residue was hydrated with 500 µL of an aqueous solution of 10,10'-dimethyl-9,9'-biacridinium nitrate (lucigenin, 0.8 mM) and NaNO3 (225 mM), sonicated for 30 s and stirred for 1 h to give heterogeneous vesicles. Multilamellar vesicles were disrupted by 10 freeze-thaw cycles and then the solution was diluted to 1 mL (by adding 0.5 mL of 225 mM NaNO3) and carefully extruded (29 times) through a polycarbonate membrane (200 nm pore size) to give a uniform distribution of LUVs with an average diameter of ~200 nm.2 The external lucigenin was removed by passing the solution though a size exclusion column (containing ~2 g Sephadex 50G, eluted with 225 mM NaNO3). The collected vesicles were further diluted with NaNO3 solution (225 mM) to obtain a vesicle solution with 0.4 mM lipid concentration. 3.00 mL of this vesicle solution was placed in a quartz cuvette with a small stir bar and the fluorescence intensity (excitation at 450 nm, emission at 535 nm) was measured over time at 25 °C, using a PerkinElmer LS45 fluorescence spectrometer. 75 µL of aqueous NaCl (1.0 M in 225 mM NaNO3, to give an overall external chloride concentration of 25 mM) was added ~30 seconds after the start of the experiment and the fluorescence intensity was measured for another 14 […]
Fluorescence data were collected for at least four replicate experiments. The plateau (before addition of chloride) and the vertical drop (the first 1-2.5 seconds after chloride addition, due to quenching of external lucigenin) were removed. Next the data were normalized: all fluorescence values (F) were divided by the fluorescence value before addition of chloride (F0).
Initial rates (I) were obtained from fluorescence -decay curves (0-500 s) by fitting their inverse (F0/F) to a double exponential decay function:
Differentiating this gives F = abe−bt + cde−dt […]
and substituting t = 0 gives the following equation for initial rate: I = ab + cd Specific initial rates [I] were obtained by dividing the initial rates by the anionophore to lipid […]

[4] = set-up: method as in ref [20], [21], [23], [24], [29] (Reference column); settings: transporter preincorporated in LUVs (70% POPC + 30% cholesterol), 25 mM NaCl gradient, 225 mM NaNO3; ref [20], [21], [23], [24], [29]; cited from earlier work

Question: For `O=c1c(Nc2ccccc2)c(Nc2ccccc2)c1=O` [Compound 1], which “EC50, 270 s” value [1] is on record?
Answer: 1.38 mol%

Question: What about the “K a to Cl^– in DMSO” value [2] of the same compound?
Answer: 2.6 × 10^2 M^–1

Question: And the “Corrected absolute initial slope |dF/dT|” value (YFP-FRT cells)?
Answer: 0 ×10^–3 s^–1

Question: Which “EC50, 270 s” value [1] does the source give for `O=c1c(Nc2ccc(C(F)(F)F)cc2)c(Nc2ccc(C(F)(F)F)cc2)c1=O` [Compound 2] here?
Answer: 0.06 mol%

Question: What about the “K a to Cl^– in DMSO” value [2] of the same compound?
Answer: 4.6 × 10^2 M^–1

Question: And the “Corrected absolute initial slope |dF/dT|” value (YFP-FRT cells)?
Answer: 0.3 ×10^–3 s^–1

Question: With `O=c1c(Nc2cc(C(F)(F)F)cc(C(F)(F)F)c2)c(Nc2cc(C(F)(F)F)cc(C(F)(F)F)c2)c1=O` [Compound 3] as the compound, how does the “EC50, 270 s” value [1] read?
Answer: 0.01 mol%

Question: And the “K a to Cl^– in DMSO” value [2]?
Answer: 6.4 × 10^2 M^–1

Question: And the “Specific initial rate [I]” value [3]?
Answer: 75 ^b s^–1

Question: What about the “Corrected absolute initial slope |dF/dT|” value (YFP-FRT cells) of the same compound?
Answer: 0 ×10^–3 s^–1

Question: With `CCc1c(CNC(=S)Nc2ccc([N+](=O)[O-])cc2)c(CC)c(CNC(=S)Nc2ccc([N+](=O)[O-])cc2)c(CC)c1CNC(=S)Nc1ccc([N+](=O)[O-])cc1` [Compound 4] as the compound, how does the “Specific initial rate [I]” value [4] read?
Answer: 5 s^–1

Question: And the “K a to Cl^– in DMSO” value [2]?
Answer: 3.8 × 10^2 M^–1

Question: What about the “Corrected absolute initial slope |dF/dT|” value (YFP-FRT cells) of the same compound?
Answer: 0.2 ×10^–3 s^–1

Question: With `CCc1c(CNC(=O)Nc2cc(C(F)(F)F)cc(C(F)(F)F)c2)c(CC)c(CNC(=O)Nc2cc(C(F)(F)F)cc(C(F)(F)F)c2)c(CC)c1CNC(=O)Nc1cc(C(F)(F)F)cc(C(F)(F)F)c1` [Compound 7] as the compound, how does the “Specific initial rate [I]” value [4] read?
Answer: 50 s^–1

Question: What about the “K a to Cl^– in DMSO” value [2] of the same compound?
Answer: 3.9 × 10^2 M^–1

Question: And the “Corrected absolute initial slope |dF/dT|” value (YFP-FRT cells)?
Answer: 0.2 ×10^–3 s^–1

Question: What does the source list for `O=C(Nc1ccc([N+](=O)[O-])cc1)Nc1cccc2cc3cccc(NC(=O)Nc4ccc([N+](=O)[O-])cc4)c3cc12` [Compound 20]?
Answer: Specific initial rate [I] [4]: 2100 s^–1; K a to Cl^– in DMSO [2]: 2.6 × 10^3 M^–1; anion transport activity in YFP-FRT cells (in words) (YFP-FRT cells): intermediate levels; Corrected absolute initial slope |dF/dT| (YFP-FRT cells): 8.4 ×10^–3 s^–1

Question: With `O=C(Nc1ccc(C(F)(F)F)cc1)Nc1cccc2cc3cccc(NC(=O)Nc4ccc(C(F)(F)F)cc4)c3cc12` [Compound 21] as the compound, how does the “Specific initial rate [I]” value [4] read?
Answer: 1200 s^–1

Question: What about the “K a to Cl^– in DMSO” value [2] of the same compound?
Answer: 2.2 × 10^3 M^–1

Question: And the “Corrected absolute initial slope |dF/dT|” value (YFP-FRT cells)?
Answer: 1.7 ×10^–3 s^–1

Question: For `O=C(Nc1cc(C(F)(F)F)cc(C(F)(F)F)c1)Nc1cccc2cc3cccc(NC(=O)Nc4cc(C(F)(F)F)cc(C(F)(F)F)c4)c3cc12` [Compound 22], which “Specific initial rate [I]” value [4] is on record?
Answer: 1900 s^–1

Question: And the “K a to Cl^– in DMSO” value [2]?
Answer: 3.0 × 10^3 M^–1

Question: What about the “anion transport activity in YFP-FRT cells (in words)” value (YFP-FRT cells) of the same compound?
Answer: intermediate levels

Question: And the “Corrected absolute initial slope |dF/dT|” value (YFP-FRT cells)?
Answer: 9.0 ×10^–3 s^–1
